In US6656956B2, “Benzimidazole derivatives, processes for preparing them and their use as pharmaceutical compositions” (Boehringer Ingelheim Pharma KG, priority 2001, dated 2003):
Counter-ions that a name gives are not always drawn.

Target: T1, rh beta tryptase (Homo sapiens, UniProt Q15661)
T1 construct: purchased Promega
Experiment: tryptase inhibition in vitro test (cleavage of N-p-tosyl-Gly-Pro-Lys-para-nitroaniline, p-nitroaniline measured at 405 nm)
Type: biochemical
Details: rh beta tryptase 0.91 U/ml, substrate 0.6 mM, Tris HCl buffer with calcium and heparin, pH 7.4, 37° C., 5 minutes incubation; read-out: Tryptase-inhibiting activity
How it was run: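 Chromogenic assay in 100 mM Tris HCl pH 7.4 with 5 mM calcium and […], 0.91 U/ml enzyme, 0.6 mM substrate. Compound preincubated 5 min, then p-nitroaniline at 405 nm after 5 min, 37° C. Screening at 10 μM as % inhibition; IC50 determined when inhibition exceeded 70%.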

T1 sequence (Q15661 31-275): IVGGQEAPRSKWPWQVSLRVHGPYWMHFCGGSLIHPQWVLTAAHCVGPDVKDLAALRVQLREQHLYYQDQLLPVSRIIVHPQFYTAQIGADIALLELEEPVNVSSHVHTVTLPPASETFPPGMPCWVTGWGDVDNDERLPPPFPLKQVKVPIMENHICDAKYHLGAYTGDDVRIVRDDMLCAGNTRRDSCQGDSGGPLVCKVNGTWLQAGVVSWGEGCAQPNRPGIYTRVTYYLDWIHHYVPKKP

Question: For CN(C(=O)CN1CCC(Nc2ccccc2I)CC1)c1ccc2c(c1)nc(CCc1ccc(C(=N)N)cc1)n2C [Example 37, N-{2-[2-(4-Amidinophenyl)-ethyl]-1-methyl-benzimidazol-5-yl}-N-methyl-2-[4-(2-iodophenylamino)-piperid-1-yl]-acetamide, dihydrochloride], which IC50 is on record?
Answer: The IC50 was 0.5 to 3 nM.
